In US11390621B2, “Chiral indole compounds and their use” (ARIAGEN, INC., priority 2019, dated 2022):

Key:
Format in all cases: in vitro ADME
CYP1A2 = target: T1, CYP1A2 (Homo sapiens, UniProt P05177); experiment: CYP profiling: human liver microsomes with CYP1A2 inhibitor furafylline; set-up: % Compound Metabolized at 30 min, CYP1A2 Inhibitor: concentration or dose not given beside the values; conditions: HLMs
T1 construct: from tissue; host or cells: human liver microsomes
T1 sequence (P05177 1-516): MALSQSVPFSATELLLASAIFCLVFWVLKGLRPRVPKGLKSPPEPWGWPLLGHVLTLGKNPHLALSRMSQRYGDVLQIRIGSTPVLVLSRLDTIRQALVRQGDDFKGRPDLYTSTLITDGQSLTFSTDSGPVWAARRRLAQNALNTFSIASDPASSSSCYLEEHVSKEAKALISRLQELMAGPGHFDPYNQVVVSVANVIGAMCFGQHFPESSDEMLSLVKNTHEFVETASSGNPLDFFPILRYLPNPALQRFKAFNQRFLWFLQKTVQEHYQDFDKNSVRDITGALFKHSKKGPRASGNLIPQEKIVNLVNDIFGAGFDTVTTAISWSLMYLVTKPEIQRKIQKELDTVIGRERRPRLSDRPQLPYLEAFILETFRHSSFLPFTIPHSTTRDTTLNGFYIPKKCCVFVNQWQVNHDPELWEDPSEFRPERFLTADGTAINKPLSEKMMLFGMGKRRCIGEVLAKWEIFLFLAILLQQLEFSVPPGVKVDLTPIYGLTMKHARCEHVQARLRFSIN
Method: (§1) In order to investigate the contributions of CYP1A2 and CYP3A4 to the metabolism of the compounds of the present disclosure, human liver microsomes were incubated with the test compounds for 30 minutes in the presence of selective chemical inhibitors furafylline (1A2) and ketoconazole (3A4).

CYP3A4 = target: T2, CYP3A4 (Homo sapiens, UniProt P08684); experiment: CYP profiling: human liver microsomes with CYP3A4 inhibitor ketoconazole; set-up: % Compound Metabolized at 30 min, CYP3A4 Inhibitor: concentration or dose not given beside the values; conditions: HLMs
T2 construct: from tissue; host or cells: human liver microsomes
Method: as §1

human hepatocytes = experiment: Hepatocyte intrinsic clearance assay (metabolic stability), human hepatocytes; conditions: Human Hepatocytes; well stirred liver model, fu=1
From the text: (§2) The liver is an important organ in the body for drug metabolism. This Example describes hepatocyte intrinsic clearance assays using both human and rat hepatocytes to evaluate the metabolic stability of the indole compounds disclosed herein. The parameters measured include t1/2 (half-life), CLint (intrinsic clearance), and EH (hepatic extraction ratio).
(§3) Testosterone (Lot FE111011-01) was obtained from Cerilliant (Round Rock, Tex.). 7-hydroxycoumarin (Lot 11631ED) was obtained from Sigma Aldrich (St. Louis, Mo.). Cryopreserved human hepatocytes pooled from ten donor males (X008001), cryopreserved male IRC/CD-1 mouse hepatocytes (M005052), INVITROGRO HI Medium (incubation), and INVITROGRO HT Medium (thawing) were obtained from Bioreclamation IVT (Baltimore, Md.). All solvents were obtained from commercial sources and used without further purification.
(§4) Each test compound was prepared as a 1 mM stock solution in DMSO. A 2 μM solution of test compound and positive controls were prepared in INVITROGRO HI Medium (incubation). These solutions were pre-warmed in a sterile incubator set to maintain 37° C., 5% CO2, and 98% humidity. Cryopreserved hepatocytes were prepared at a concentration of 2×10^6 living cells/mL in incubation media and pre-warmed in the incubator. The compound solutions and hepatocyte mixtures were then combined at a ratio of 1:1 (v:v). The final volume of the reaction mixture was 750 μL, containing 1 μM test compound (10 μM for 7-hydroxycoumarin) and […]. The reaction mixture was placed in the incubator on a plate shaker. After 0, 15, 30, 60, 90, and 120 minutes of incubation, 100 μL of reaction mixtures were removed from the incubation plate and mixed with 150 μL of ice-cold acetonitrile in a designated well of a 96-well crash plate. The 96-well crash plate was placed on ice for 15 min, and samples were centrifuged (3,600 RPM, 10 min, 4° C.) to precipitate protein. The supernatants were diluted 1:1 (v:v) with water containing 0.15 μM verapamil and/or 1 μM tolbutamide (internal standards for positive and negative modes, respectively) in a 96-well shallow injection plate. This plate was sealed for LC-MS analysis. All measurements were done in duplicate.
(§5) The residual compound remaining (% R) was determined from LC-MS peak areas by comparison to the zero time point. Metabolic half-life (t1/2) and intrinsic clearance (CLint) values were calculated from the slope of the plot of ln (% R) vs. time and the concentration of hepatocytes present in the incubation. Percent remaining at 60 minutes was calculated by plugging in the 60 minute value into the slope equation generated by the percent remaining time points.
(§6) In vivo hepatic clearance CLH was calculated using the well stirred liver model according to the following equation:
(§7) [formula] where QH is the total liver blood flow, fu is unbound fraction of the drug, and CL′int is defined as follows: CL′int=CLint×(10^6 cells/g of liver weight)×(g liver weight/kg of body weight). In the first approximation, used in this study, fu=1.
(§8) Hepatic extraction ratio EH was calculated using the following equation:
(§9) [formula] Corresponding physiological parameters used in calculations for all species are shown below in Table 3.

[1] = as above; conditions: male, human, cryopreserved pooled hepatocytes, Human Hepatocytes, 1 μM test compound
From the text: as §2, §3, §4, §5, §6, §7, §8, §9

[2] = Hepatocyte intrinsic clearance assay (metabolic stability), rat hepatocytes; conditions: rat, cryopreserved hepatocytes, Rat Hepatocytes, 1 μM test compound
From the text: as §2, §3, §4, §5, §6, §7, §8, §9

rat hepatocytes = experiment: as above; conditions: Rat Hepatocytes; well stirred liver model, fu=1
From the text: as §2, §3, §4, §5, §6, §7, §8, §9

[3] = CYP profiling: turnover in human liver microsomes, 30 min, no inhibitor; set-up: % Compound Metabolized at 30 min, No Inhibitor: concentration or dose not given beside the values; conditions: HLMs
Method: as §1

T2 sequence (P08684 whole entry): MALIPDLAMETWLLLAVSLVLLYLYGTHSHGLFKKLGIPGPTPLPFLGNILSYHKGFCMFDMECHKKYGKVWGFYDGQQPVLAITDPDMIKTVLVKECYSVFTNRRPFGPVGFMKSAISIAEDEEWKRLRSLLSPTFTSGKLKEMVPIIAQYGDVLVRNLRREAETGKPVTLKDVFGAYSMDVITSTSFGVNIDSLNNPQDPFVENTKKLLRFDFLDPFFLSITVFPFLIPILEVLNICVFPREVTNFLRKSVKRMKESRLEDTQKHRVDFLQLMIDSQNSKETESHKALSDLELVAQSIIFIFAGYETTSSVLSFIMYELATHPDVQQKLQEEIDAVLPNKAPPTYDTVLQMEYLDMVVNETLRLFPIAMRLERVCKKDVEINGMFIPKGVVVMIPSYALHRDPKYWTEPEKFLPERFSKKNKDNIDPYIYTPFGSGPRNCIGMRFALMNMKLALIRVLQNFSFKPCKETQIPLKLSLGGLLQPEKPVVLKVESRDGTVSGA

% Compound Metabolized at 30 min, CYP1A2 Inhibitor (CYP1A2): 0%
% Inhibition Relative to Negative Control, 1A2 (CYP1A2; 30 min): 100%
% Compound Metabolized at 30 min, CYP3A4 Inhibitor (CYP3A4): 8%
% Inhibition Relative to Negative Control, 3A4 (CYP3A4; 30 min): None
EH (hepatic extraction ratio) (human hepatocytes): 1.9%
half-life at 1 μM [1]: 46.1 h
hepatocyte CLint at 1 μM [1]: 0.251 µL/min/1e6 cells
half-life at 1 μM [2]: 1.3 h
hepatocyte CLint at 1 μM [2]: 8.73 µL/min/1e6 cells
EH (hepatic extraction ratio) (rat hepatocytes): 36.9%
% Compound Metabolized at 30 min, No Inhibitor [3]: 2%
SMILES: NC(c1csc(C(=O)c2c[nH]c3ccccc23)n1)C(F)(F)F (centres unmarked) [ARI-100]
